Data as given in PubChem BioAssay (NCI).
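Assay format: 96-well plates, 48-hour exposure. At the TGI there is no net growth.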

Assays:
Experiment in all cases: DTP human tumour cell line panel, 48 h
[1] = system: SNB-75 CNS
[2] = system: OVCAR-8 ovarian
[3] = system: SK-MEL-28 melanoma
[4] = system: A549 NSCLC
[5] = system: NCI/ADR-RES ovarian
[6] = system: HOP-62 NSCLC
[7] = system: HCT-15 colon
[8] = system: SF-295 CNS
[9] = system: OVCAR-3 ovarian
[10] = system: HCT-116 colon
[11] = system: U251 CNS
[12] = system: MDA-N
[13] = system: OVCAR-4 ovarian
[14] = system: K-562 leukemia
[15] = system: MCF7 breast
[16] = system: SF-539 CNS
[17] = system: CAKI-1 renal
[18] = system: SNB-19 CNS
[19] = system: NCI-H226 lung
[20] = system: MDA-MB-231 breast
[21] = system: A498 renal
[22] = system: SK-MEL-2 melanoma
[23] = system: TK-10 renal
[24] = system: SR leukemia
[25] = system: SK-MEL-5 melanoma
[26] = system: UACC-257 melanoma
[27] = system: OVCAR-5 ovarian
[28] = system: CCRF-CEM leukemia
[29] = system: SK-OV-3 ovarian
[30] = system: BT-549 breast
[31] = system: LOX IMVI melanoma
[32] = system: EKVX NSCLC
[33] = system: HOP-92 NSCLC
[34] = system: HL-60(TB) leukemia
[35] = system: UACC-62 melanoma
[36] = system: MDA-MB-435
[37] = system: NCI-H460 lung
[38] = system: MOLT-4 leukemia
[39] = system: KM12 colon
[40] = system: SW-620 colon
[41] = system: SN12C renal
[42] = system: ACHN renal
[43] = system: PC-3 prostate
[44] = system: NCI-H522 lung
[45] = system: HS 578T breast
[46] = system: RPMI-8226 leukemia
[47] = system: HT29 colon
[48] = system: RXF 393 renal
[49] = system: IGROV1 ovarian
[50] = system: UO-31 renal
[51] = system: M14 melanoma
[52] = system: NCI-H23 lung
[53] = system: MALME-3M melanoma
[54] = system: COLO 205 colon
[55] = system: DU-145 prostate
[56] = system: HCC-2998 colon
[57] = system: SF-268 CNS
[58] = system: 786-0 renal

With COC(=O)/C=C1\SC2(OC1=Nc1ccccc1)C1CC3CC(C1)CC2C3 (centres undefined) the TGI [1] was > 100 µM, the TGI [2] was > 100 µM and the TGI [3] was > 100 µM. The TGI [4] was > 100 µM, the TGI [5] was > 100 µM and the TGI [6] was > 100 µM. The TGI [7] was > 100 µM, the TGI [8] was > 100 µM and the TGI [9] was > 100 µM. The TGI [10] was > 100 µM, the TGI [11] was > 100 µM and the TGI [12] was > 100 µM. The TGI [13] was > 100 µM, the TGI [14] was > 100 µM and the TGI [15] was > 100 µM. For the same compound, the TGI [16] was > 100 µM, the TGI [17] was > 100 µM and the TGI [18] was > 100 µM. The TGI [19] was > 100 µM, the TGI [20] was > 100 µM and the TGI [21] was > 100 µM. The TGI [22] was > 100 µM, the TGI [23] was > 100 µM and the TGI [24] was > 100 µM. For the same compound, the TGI [25] was > 100 µM, the TGI [26] was > 100 µM and the TGI [27] was > 100 µM. The TGI [28] was > 100 µM, the TGI [29] was > 100 µM and the TGI [30] was > 100 µM. For the same compound, the TGI [31] was > 100 µM, the TGI [32] was > 100 µM and the TGI [33] was > 100 µM. For the same compound, the TGI [34] was > 100 µM, the TGI [35] was > 100 µM and the TGI [36] was > 100 µM. For the same compound, the TGI [37] was > 100 µM, the TGI [38] was > 100 µM and the TGI [39] was > 100 µM. For the same compound, the TGI [40] was > 100 µM, the TGI [41] was > 100 µM and the TGI [42] was > 100 µM. For the same compound, the TGI [43] was > 100 µM, the TGI [44] was > 100 µM and the TGI [45] was > 100 µM. The TGI [46] was > 100 µM, the TGI [47] was > 100 µM and the TGI [48] was > 100 µM. For the same compound, the TGI [49] was > 100 µM and the TGI [50] was > 100 µM.
For CC(C)(C)[Si](C)(C)OCC1OC(n2cnc3c(N)ncnc32)C2OC(=S)OC12 (centres undefined), the TGI [1] was > 100 µM, the TGI [2] was > 100 µM and the TGI [3] was > 100 µM. For the same compound, the TGI [51] was > 100 µM, the TGI [5] was 81.2 µM and the TGI [6] was > 100 µM. For the same compound, the TGI [7] was > 100 µM, the TGI [8] was > 100 µM and the TGI [9] was 91.9 µM. For the same compound, the TGI [10] was > 100 µM, the TGI [11] was 68.2 µM and the TGI [12] was 94 µM. The TGI [13] was > 100 µM, the TGI [14] was > 100 µM and the TGI [15] was 93.4 µM. The TGI [52] was 73.3 µM, the TGI [17] was > 100 µM and the TGI [53] was 98.3 µM. For the same compound, the TGI [18] was > 100 µM, the TGI [19] was > 100 µM and the TGI [20] was > 100 µM. For the same compound, the TGI [21] was > 100 µM, the TGI [22] was 74.7 µM and the TGI [23] was > 100 µM. The TGI [54] was > 100 µM, the TGI [24] was > 100 µM and the TGI [25] was 36.1 µM. For the same compound, the TGI [26] was > 100 µM, the TGI [27] was 86.6 µM and the TGI [28] was 59 µM. The TGI [29] was 97 µM, the TGI [30] was 74.7 µM and the TGI [31] was > 100 µM. For the same compound, the TGI [33] was > 100 µM, the TGI [34] was > 100 µM and the TGI [35] was 77.8 µM. The TGI [36] was 48.3 µM, the TGI [55] was > 100 µM and the TGI [37] was > 100 µM. For the same compound, the TGI [38] was 69.3 µM, the TGI [39] was > 100 µM and the TGI [40] was > 100 µM. The TGI [41] was > 100 µM, the TGI [43] was > 100 µM and the TGI [45] was > 100 µM. For the same compound, the TGI [46] was > 100 µM, the TGI [47] was > 100 µM and the TGI [48] was > 100 µM. The TGI [49] was > 100 µM and the TGI [50] was 78.3 µM.
With C/C=C1/CC(C(=O)OC)N(C(=O)OCc2ccccc2)C1=S (centres undefined) the TGI [1] was > 100 µM, the TGI [2] was > 100 µM and the TGI [3] was > 100 µM. The TGI [4] was > 100 µM, the TGI [51] was > 100 µM and the TGI [5] was > 100 µM. For the same compound, the TGI [6] was > 100 µM, the TGI [56] was > 100 µM and the TGI [7] was > 100 µM. The TGI [8] was > 100 µM, the TGI [9] was > 100 µM and the TGI [10] was > 100 µM. The TGI [11] was > 100 µM, the TGI [12] was > 100 µM and the TGI [13] was > 100 µM. The TGI [14] was > 100 µM, the TGI [15] was > 100 µM and the TGI [52] was > 100 µM. For the same compound, the TGI [17] was > 100 µM, the TGI [53] was > 100 µM and the TGI [18] was > 100 µM. For the same compound, the TGI [20] was > 100 µM, the TGI [21] was > 100 µM and the TGI [22] was > 100 µM. For the same compound, the TGI [23] was > 100 µM, the TGI [54] was > 100 µM and the TGI [25] was > 100 µM. For the same compound, the TGI [26] was > 100 µM, the TGI [27] was > 100 µM and the TGI [29] was > 100 µM. The TGI [30] was > 100 µM, the TGI [32] was > 100 µM and the TGI [33] was > 100 µM. The TGI [35] was > 100 µM, the TGI [36] was > 100 µM and the TGI [55] was > 100 µM. The TGI [37] was 38.8 µM, the TGI [38] was > 100 µM and the TGI [39] was > 100 µM. The TGI [40] was > 100 µM, the TGI [42] was > 100 µM and the TGI [43] was > 100 µM. The TGI [44] was > 100 µM, the TGI [57] was > 100 µM and the TGI [45] was > 100 µM. For the same compound, the TGI [46] was > 100 µM, the TGI [47] was > 100 µM and the TGI [48] was > 100 µM. The TGI [49] was > 100 µM, the TGI [58] was > 100 µM and the TGI [50] was > 100 µM.
For CC(=O)N1C=Cc2c(c(C)c3c([nH]c4ccccc43)c2C)C1, the TGI [2] was 29.1 µM, the TGI [3] was 31.8 µM and the TGI [4] was 24.2 µM. The TGI [51] was 20.9 µM, the TGI [5] was 8.41 µM and the TGI [6] was 17.5 µM. The TGI [7] was 4.99 µM, the TGI [8] was 23.8 µM and the TGI [9] was 4.55 µM. It also gave a TGI [10] of 3.21 µM, a TGI [11] of 19.4 µM and a TGI [12] of 27.6 µM. For the same compound, the TGI [13] was 5.17 µM, the TGI [14] was > 100 µM and the TGI [15] was 18.5 µM. The TGI [16] was 18.8 µM, the TGI [52] was 20.4 µM and the TGI [17] was 25.4 µM. For the same compound, the TGI [53] was 23.1 µM, the TGI [18] was 28.7 µM and the TGI [19] was 31.9 µM. It also gave a TGI [20] of 9.34 µM, a TGI [21] of 28.3 µM and a TGI [22] of 27.2 µM. For the same compound, the TGI [23] was 24.5 µM, the TGI [54] was 19.1 µM and the TGI [24] was > 100 µM. It also gave a TGI [25] of 33.5 µM, a TGI [26] of 29.6 µM and a TGI [27] of 24 µM. For the same compound, the TGI [28] was > 100 µM, the TGI [29] was 27 µM and the TGI [30] was 14.6 µM. It also gave a TGI [31] of 16.8 µM, a TGI [32] of 8.13 µM and a TGI [33] of 20.8 µM. The TGI [34] was > 100 µM, the TGI [36] was 27.4 µM and the TGI [55] was 26.6 µM. For the same compound, the TGI [38] was > 100 µM, the TGI [39] was 12 µM and the TGI [40] was 7.47 µM. The TGI [41] was 20.3 µM, the TGI [42] was 11.3 µM and the TGI [43] was 19.6 µM. For the same compound, the TGI [44] was 29.7 µM, the TGI [57] was 32.6 µM and the TGI [45] was 15.9 µM. It also gave a TGI [46] of 50.6 µM, a TGI [47] of 18 µM and a TGI [48] of 37.4 µM. For the same compound, the TGI [49] was 17.9 µM and the TGI [58] was 6.73 µM.
